Converted amounts (≈) assume the structure as drawn. Read-outs that look alike come from different tables or passages of the source.
Tests used:
Sarcoma 180 tumor = assay: Therapeutic Effect Against Sarcoma 180 Tumor; type: in vivo, male ddY-strain mice; details: Mus musculus, Sarcoma-180, iv, 168 h, read-out: T/C
Description: Five male ddY-strain mice each weighing 18-20 g were used for each group as test animals, and 5×10^5 Sarcoma 180 tumor cells were implanted at the axilla subcutaneously. One day after the implantation, 0.2 ml of a physiological saline containing Compound (I) at the concentration shown in Table 2 was intravenously administered to each mouse. T/C [T: average tumor volume (mm^3) of the group treated with the test compound, C: average tumor volume (mm^3) of the control group (to which […] of a physiological saline was intravenously administered)] was determined seven days after the implantation.

ddY-strain male mice = assay: Acute Toxicity; type: in vivo; details: i.v., mortality at 14 days after administration
Description: Compound (I) was intravenously administered to ddY-strain male mice each weighing 20±1 g. MLD (minimum lethal dose) was determined by observing the mortality at 14 days after administration.

HeLaS3 cells = assay: Growth Inhibitory Effect Against HeLaS3 cells; type: cell-based
Description: HeLaS3 cells were suspended in MEM medium containing 10% calf serum and 2 mM glutamine to a concentration of 2.67×10^4 cells/mi. The cell suspension thus prepared was put into wells of a 24-well culture plate in an amount of 0.75 ml per well. After the cells were incubated in a CO2 incubator overnight at 37° C., Compound (I) which had been appropriately diluted with a culture medium was added to each well in an amount of 0.25 ml.
The cells were further incubated in the CO2 incubator for 72 hours, and the culture supernatant was removed. Then, the cells were dispersed in a solution of trypsin and EDTA and recovered. The number of cells was counted using a cell counter. The concentration (IC50) of Compound (I) at which the growth of the cells is inhibited by 50% was calculated by comparing the number of untreated cells with the number of the cells treated with Compound (I) at known concentrations.

[1] = Test for Solubility in Water; type: physicochemical; details: room temperature
Description: A sample tube was charged with 0.7 mg of Compound (I), and 30 μl of water were added thereto at room temperature. The mixture was stirred, and the solubility in water was measured. When the compound was not dissolved, 30 μl of water was added thereto successively, and the mixture was stirred. The solubility in water was measured when the compound was dissolved.

[2] = Homo sapiens, HeLa S3, 72 hours, read-out: IC50
[3] = 1.0 mg/kg, single i.v. one day after s.c. implantation, tumor volume ratio seven days after implantation

| SMILES | MLD (minimum lethal dose) (ddY-strain male mice) | IC50 (HeLaS3 cells; Homo sapiens, HeLa S3, 72 h) | solubility [1] | IC50 (HeLaS3 cells; [2]) | also measured |
| --- | --- | --- | --- | --- | --- |
| COC(=O)c1c(C)[nH]c2c(OC(=O)c3cccnc3)cc3c(c12)C(CBr)CN3C(=O)/C=C/c1ccc(N(C)C)cc1 (centres unmarked) [Compound 77] | 4.0 mg/kg | 0.45 nM | – | – | response vs control in vivo at 4 mg/kg (Sarcoma 180 tumor): 19% |
| COC(=O)c1c(C)[nH]c2c(OC(=O)c3ccc(N(C)C)cc3)cc3c(c12)C(CBr)CN3C(=O)/C=C/c1ccc(OC)c(N(C)C)c1 (centres unmarked) [Compound 56] | 1.0 mg/kg | 2.2 nM | – | – | response vs control in vivo at 1 mg/kg (Sarcoma 180 tumor): 36% |
| COC(=O)c1c(C)[nH]c2c(OC(=O)NN3CCN(C)CC3)cc3c(c12)C(CBr)CN3C(=O)/C=C/c1ccc(OC)c(N(C)C)c1 (centres unmarked) [Compound 60] | > 8.0 mg/kg | 0.94 nM | > 20 mg/mL | – | response vs control in vivo at 4 mg/kg (Sarcoma 180 tumor): 15% |
| COC(=O)c1c(C)[nH]c2c1C13CC1CN(C(=O)/C=C/c1ccc(OC)c(OCCCN)c1)C3=CC2=O (centres unmarked) [Compound 30] | – | – | – | 1.4 nM | – |
| COC(=O)c1c(C)[nH]c2c(O)cc3c(c12)C(CCl)CN3C(=O)/C=C/c1ccc(OC)c(N(C)C)c1 (centres unmarked) [Compound 80] | – | – | > 15 mg/mL | 0.44 nM | – |
| COC(=O)c1c(C)[nH]c2c(OC(=O)N(C)N)cc3c(c12)C(CBr)CN3C(=O)/C=C/c1ccc(OC)c(N(C)C)c1 (centres unmarked) [Compound 53] | 2.0 mg/kg | 1.2 nM | – | – | response vs control in vivo at 2 mg/kg (Sarcoma 180 tumor): 7% |
| COC(=O)c1c(C)[nH]c2c1C13CC1CN(C(=O)/C=C/c1ccc(OC)nn1)C3=CC2=O (centres unmarked) [Compound 12] | – | – | – | 0.28 nM | – |
| COC(=O)c1c(C)[nH]c2c1C13CC1CN(C(=O)COc1ccc(OC)cc1)C3=CC2=O (centres unmarked) [Compound 18] | – | – | – | 0.19 nM | – |
| CNN(C)C(=O)Oc1cc2c(c3c(C(=O)OC)c(C)[nH]c13)C(CBr)CN2C(=O)/C=C/c1ccc(OC)c(N(C)C)c1 (centres unmarked) [Compound 64] | 2.0 mg/kg | 1.1 nM | > 15 mg/mL | – | response vs control in vivo at 1.3 mg/kg (Sarcoma 180 tumor): 26% |
| COC(=O)c1c(C)[nH]c2c(OC(=O)N(C)N)cc3c(c12)C(CBr)CN3C(=O)/C=C/c1cnc(OC)nc1 (centres unmarked) [Compound 74] | – | 2.4 nM | – | – | response vs control in vivo at 1 mg/kg (Sarcoma 180 tumor): 37% |
| COC(=O)c1c(C)[nH]c2c(OC(=O)c3ccc(CN4CCN(C)CC4)cc3)cc3c(c12)C(CBr)CN3C(=O)/C=C/c1cnc(OC)nc1 (centres unmarked) [Compound 76] | – | – | > 10 mg/mL | 1.3 nM | response vs control in vivo at 1 mg/kg (Sarcoma 180 tumor; [3]): 25% |
| COC(=O)c1c(C)[nH]c2c1C13CC1CN(C(=O)/C=C/c1cnc(OC)nc1)C3=CC2=O (centres unmarked) [Compound 6] | – | – | – | 0.9 nM | – |
| COC(=O)c1c(C)[nH]c2c(OC(=O)NN3CCN(C)CC3)cc3c(c12)C(CBr)CN3C(=O)/C=C/c1cnc(OC)nc1 (centres unmarked) [Compound 72] | 4.0 mg/kg | – | – | – | response vs control in vivo at 4 mg/kg (Sarcoma 180 tumor): 15%; IC50 (HeLaS3 cells; 72 hours): 1.6 nM; Solubility in water [1]: > 10 mg/mL |
| COC(=O)c1c(C)[nH]c2c1C13CC1CN(C(=O)/C=C/c1ccc(N(C)C)cc1)C3=CC2=O (centres unmarked) [Compound 27] | – | – | – | 1.6 nM | – |
| COC(=O)c1c(C)[nH]c2c1C13CC1CN(C(=O)/C=C/c1ccc(OC)c(N)c1)C3=CC2=O (centres unmarked) [Compound 37] | – | – | – | 0.53 nM | – |
| CCN(CC)c1cc(/C=C/C(=O)N2CC(CBr)c3c2cc(OC(=O)N2CCN(C)CC2)c2[nH]c(C)c(C(=O)OC)c32)ccc1OC (centres unmarked) [Compound 49] | > 8.0 mg/kg | 280 nM | > 20 mg/mL | – | response vs control in vivo at 8 mg/kg (Sarcoma 180 tumor): 20% |
| COC(=O)c1c(C)[nH]c2c(OC(=O)N3CCN(C)CC3)cc3c(c12)C(CBr)CN3C(=O)/C=C/c1ccc(OC)cn1 (centres unmarked) [Compound 17] | – | – | > 20 mg/mL | – | – |
| COC(=O)c1c(C)[nH]c2c1C13CC1CN(C(=O)COc1ccc(OC(F)(F)F)cc1)C3=CC2=O (centres unmarked) [Compound 23] | – | – | – | 1.6 nM | – |
| COC(=O)c1c(C)[nH]c2c(OC(=O)CSCC(=O)O)cc3c(c12)C(CBr)CN3C(=O)/C=C/c1cnc(OC)nc1 (centres unmarked) [Compound 73] | – | – | < 0.1 mg/mL | 1.2 nM | response vs control in vivo at 1 mg/kg (Sarcoma 180 tumor; [3]): 36% |

| SMILES | MLD (minimum lethal dose) (ddY-strain male mice) | IC50 (HeLaS3 cells; Homo sapiens, HeLa S3, 72 h) | solubility [1] | IC50 (HeLaS3 cells; [2]) | also measured |
| --- | --- | --- | --- | --- | --- |
| COC(=O)c1c(C)[nH]c2c(OC(=O)c3nccnc3N)cc3c(c12)C(CBr)CN3C(=O)/C=C/c1ccc(OC)c(N(C)C)c1 (centres unmarked) [Compound 58] | – | – | > 20 mg/mL | – | – |
| COC(=O)c1c(C)[nH]c2c(OC(=O)N3CCN(C)CC3)cc3c(c12)C(CBr)CN3C(=O)COc1ccc(OC)cc1 (centres unmarked) [Compound 20] | 0.50 mg/kg | 94 nM | – | – | response vs control in vivo at 0.5 mg/kg (Sarcoma 180 tumor): 20% |
| COC(=O)c1c(C)[nH]c2c(OC(C)=O)cc3c(c12)C(CBr)CN3C(=O)/C=C/c1cnc(OC)nc1 (centres unmarked) [Compound 11] | 1.0 mg/kg | 0.92 nM | – | – | response vs control in vivo at 1 mg/kg (Sarcoma 180 tumor): 17% |
| COC(=O)c1c(C)[nH]c2c(O)cc3c(c12)C(CBr)CN3C(=O)/C=C/c1ccc(OC)c(N(C)C)c1 (centres unmarked) [Compound 81] | – | – | 2.5 mg/mL (≈ 4.61 mM) | 0.5 nM | – |
| COC(=O)c1c(C)[nH]c2c(OC(=O)NN3CCN(C)CC3)cc3c(c12)C(CBr)CN3C(=O)/C=C/c1cnc(OC)nc1 (centres unmarked) [Compound 71] | – | 1.5 nM | > 10 mg/mL | – | response vs control in vivo at 2 mg/kg (Sarcoma 180 tumor): 30% |
| COC(=O)c1c(C)[nH]c2c1C13CC1CN(C(=O)/C=C/c1ccc(NC(=O)OC(C)(C)C)cc1)C3=CC2=O (centres unmarked) [Compound 26] | – | – | – | 0.56 nM | – |
| COC(=O)c1c(C)[nH]c2c(OC(=O)N3CCN(C)CC3)cc3c(c12)C(CBr)CN3C(=O)/C=C/c1ccc(OC)c(OCCCN)c1 (centres unmarked) [Compound 32] | – | – | > 20 mg/mL | – | – |
| COC(=O)c1c(C)[nH]c2c(OC(=O)c3cccnc3)cc3c(c12)C(CBr)CN3C(=O)/C=C/c1cnc(OC)nc1 (centres unmarked) [Compound 67] | 1.0 mg/kg | 1.2 nM | – | – | response vs control in vivo at 1 mg/kg (Sarcoma 180 tumor): 26% |
| COC(=O)c1c(C)[nH]c2c1C13CC1CN(C(=O)/C=C/c1ccc(N)cc1)C3=CC2=O (centres unmarked) [Compound 28] | – | – | – | 2.6 nM | – |
| COC(=O)c1c(C)[nH]c2c(OC(=O)N3CCN(C)CC3)cc3c(c12)C(CBr)CN3C(=O)/C=C/c1ccc(N(C)C)cc1 (centres unmarked) [Compound 79] | – | 52 nM | > 20 mg/mL | – | response vs control in vivo at 8 mg/kg (Sarcoma 180 tumor): 22% |
| COC(=O)c1c(C)[nH]c2c(OC(=O)CN3CCN(C)CC3)cc3c(c12)C(CBr)CN3C(=O)/C=C/c1ccc(OC)c(N(C)C)c1 (centres unmarked) [Compound 82] | 2.0 mg/kg | 0.5 nM | > 10 mg/mL | – | – |
| COC(=O)COc1cc(/C=C/C(=O)N2CC3CC34C2=CC(=O)c2[nH]c(C)c(C(=O)OC)c24)ccc1OC (centres unmarked) [Compound 34] | – | – | – | 0.86 nM | – |
| COC(=O)c1c(C)[nH]c2c1C13CC1CN(C(=O)/C=C/c1ccc(OC)c(N(C)C)c1)C3=CC2=O (centres unmarked) [Compound 41] | – | – | – | 0.92 nM | – |
| COC(=O)Oc1cc2c(c3c(C(=O)OC)c(C)[nH]c13)C(CBr)CN2C(=O)/C=C/c1ccc(OC)nc1 (centres unmarked) [Compound 4] | 0.50 mg/kg | 0.7 nM | – | – | response vs control in vivo at 0.5 mg/kg (Sarcoma 180 tumor): 35% |
| COC(=O)Oc1cc2c(c3c(C(=O)OC)c(C)[nH]c13)C(CBr)CN2C(=O)/C=C/c1ccc(OC)c(N)c1 (centres unmarked) [Compound 38] | – | – | – | 0.67 nM | – |
| COC(=O)c1c(C)[nH]c2c(OC(=O)N3CCN(C)CC3)cc3c(c12)C(CBr)CN3C(=O)/C=C/c1ccc(OC)c(N)c1 (centres unmarked) [Compound 40] | – | – | > 20 mg/mL | – | – |
| COC(=O)c1c(C)[nH]c2c(OC(=O)CN3CCC(N4CCCCC4)CC3)cc3c(c12)C(CBr)CN3C(=O)/C=C/c1ccc(OC)c(N(C)C)c1 (centres unmarked) [Compound 83] | – | – | > 20 mg/mL | 0.59 nM | – |
| COC(=O)c1c(C)[nH]c2c1C13CC1CN(C(=O)/C=C/c1ccc(OC)nc1)C3=CC2=O (centres unmarked) [Compound 1] | – | – | – | 0.42 nM | – |

— patent publication US5670492A, “DC-89 derivatives” (priority 1994, dated 1997)
